Patent US8178668B2, “2-aminopyridine kinase inhibitors” (OSI Pharmaceuticals, LLC, priority 2008, dated 2012)
Where a name gives a salt, the structure may show the parent alone.

How the values were obtained:
[1] = biological target: RON (human) (Homo sapiens, UniProt Q04912); test: RON kinase AlphaScreen assay (Km of ATP); assay type: biochemical; conditions: ATP at Km; at least duplicate experiments
How it was run: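 Human RON phosphorylated biotinylated poly(Glu,Tyr) (200 ng/μL) at Km ATP in 50 mM HEPES pH 7.4, 12.5 mM MgCl2, 1% glycerol, 0.334 mM vanadate, 1% DMSO. Reaction ran 30 min at RT after enzyme addition. Product was detected by AlphaScreen with PT66 beads after 1 h.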

[2] = biological target: MET (human) (Homo sapiens, UniProt P08581); test: MET kinase AlphaScreen assay (Km of ATP); assay type: biochemical; conditions: ATP at Km; at least duplicate experiments
MET (human), sequence (P08581 25-1390): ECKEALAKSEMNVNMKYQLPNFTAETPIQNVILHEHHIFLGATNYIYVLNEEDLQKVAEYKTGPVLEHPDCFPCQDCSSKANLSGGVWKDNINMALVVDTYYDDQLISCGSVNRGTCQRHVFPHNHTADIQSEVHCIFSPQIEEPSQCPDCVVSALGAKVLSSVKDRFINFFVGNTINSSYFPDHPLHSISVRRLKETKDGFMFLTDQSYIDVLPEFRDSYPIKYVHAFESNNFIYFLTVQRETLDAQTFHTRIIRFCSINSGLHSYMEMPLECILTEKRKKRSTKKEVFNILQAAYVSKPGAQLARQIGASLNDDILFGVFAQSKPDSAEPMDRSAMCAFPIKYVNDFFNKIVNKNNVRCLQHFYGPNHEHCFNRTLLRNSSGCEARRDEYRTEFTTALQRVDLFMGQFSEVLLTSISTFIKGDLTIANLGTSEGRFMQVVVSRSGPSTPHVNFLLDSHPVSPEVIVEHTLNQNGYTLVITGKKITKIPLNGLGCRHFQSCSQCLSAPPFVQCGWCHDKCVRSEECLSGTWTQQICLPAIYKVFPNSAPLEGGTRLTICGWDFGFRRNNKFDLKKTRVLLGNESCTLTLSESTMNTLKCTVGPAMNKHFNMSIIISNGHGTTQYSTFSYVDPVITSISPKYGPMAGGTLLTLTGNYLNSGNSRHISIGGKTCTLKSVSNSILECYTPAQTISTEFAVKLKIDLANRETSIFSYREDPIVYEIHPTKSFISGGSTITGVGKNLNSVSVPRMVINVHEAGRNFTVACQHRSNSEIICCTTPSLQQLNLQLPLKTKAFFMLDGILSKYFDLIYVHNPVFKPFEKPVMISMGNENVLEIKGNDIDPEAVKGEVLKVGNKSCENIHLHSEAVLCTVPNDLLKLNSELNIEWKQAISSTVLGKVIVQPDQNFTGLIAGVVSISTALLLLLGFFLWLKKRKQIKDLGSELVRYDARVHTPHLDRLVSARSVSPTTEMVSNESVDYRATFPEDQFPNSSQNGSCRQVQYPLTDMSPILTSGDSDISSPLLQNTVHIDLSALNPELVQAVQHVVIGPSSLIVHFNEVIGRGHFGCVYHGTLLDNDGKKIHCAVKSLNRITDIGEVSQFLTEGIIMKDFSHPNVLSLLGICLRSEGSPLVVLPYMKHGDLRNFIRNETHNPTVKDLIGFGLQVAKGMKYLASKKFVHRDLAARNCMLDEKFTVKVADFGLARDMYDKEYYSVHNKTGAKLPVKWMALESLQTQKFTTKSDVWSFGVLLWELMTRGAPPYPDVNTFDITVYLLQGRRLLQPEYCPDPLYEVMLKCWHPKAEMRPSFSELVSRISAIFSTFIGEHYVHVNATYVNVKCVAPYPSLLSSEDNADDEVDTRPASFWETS
How it was run: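 Biotinylated poly(Glu,Tyr) (200 ng/μL) phosphorylated by MET with ATP at an enzyme-optimized level, in 50 mM HEPES pH 7.4 with Mg2+/Mn2+ and vanadate, 1% DMSO. Reaction runs 60 min at RT. PT66 AlphaScreen donor/acceptor beads are added and signal is read after 1 h.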

RON (human), sequence (Q04912 25-1400): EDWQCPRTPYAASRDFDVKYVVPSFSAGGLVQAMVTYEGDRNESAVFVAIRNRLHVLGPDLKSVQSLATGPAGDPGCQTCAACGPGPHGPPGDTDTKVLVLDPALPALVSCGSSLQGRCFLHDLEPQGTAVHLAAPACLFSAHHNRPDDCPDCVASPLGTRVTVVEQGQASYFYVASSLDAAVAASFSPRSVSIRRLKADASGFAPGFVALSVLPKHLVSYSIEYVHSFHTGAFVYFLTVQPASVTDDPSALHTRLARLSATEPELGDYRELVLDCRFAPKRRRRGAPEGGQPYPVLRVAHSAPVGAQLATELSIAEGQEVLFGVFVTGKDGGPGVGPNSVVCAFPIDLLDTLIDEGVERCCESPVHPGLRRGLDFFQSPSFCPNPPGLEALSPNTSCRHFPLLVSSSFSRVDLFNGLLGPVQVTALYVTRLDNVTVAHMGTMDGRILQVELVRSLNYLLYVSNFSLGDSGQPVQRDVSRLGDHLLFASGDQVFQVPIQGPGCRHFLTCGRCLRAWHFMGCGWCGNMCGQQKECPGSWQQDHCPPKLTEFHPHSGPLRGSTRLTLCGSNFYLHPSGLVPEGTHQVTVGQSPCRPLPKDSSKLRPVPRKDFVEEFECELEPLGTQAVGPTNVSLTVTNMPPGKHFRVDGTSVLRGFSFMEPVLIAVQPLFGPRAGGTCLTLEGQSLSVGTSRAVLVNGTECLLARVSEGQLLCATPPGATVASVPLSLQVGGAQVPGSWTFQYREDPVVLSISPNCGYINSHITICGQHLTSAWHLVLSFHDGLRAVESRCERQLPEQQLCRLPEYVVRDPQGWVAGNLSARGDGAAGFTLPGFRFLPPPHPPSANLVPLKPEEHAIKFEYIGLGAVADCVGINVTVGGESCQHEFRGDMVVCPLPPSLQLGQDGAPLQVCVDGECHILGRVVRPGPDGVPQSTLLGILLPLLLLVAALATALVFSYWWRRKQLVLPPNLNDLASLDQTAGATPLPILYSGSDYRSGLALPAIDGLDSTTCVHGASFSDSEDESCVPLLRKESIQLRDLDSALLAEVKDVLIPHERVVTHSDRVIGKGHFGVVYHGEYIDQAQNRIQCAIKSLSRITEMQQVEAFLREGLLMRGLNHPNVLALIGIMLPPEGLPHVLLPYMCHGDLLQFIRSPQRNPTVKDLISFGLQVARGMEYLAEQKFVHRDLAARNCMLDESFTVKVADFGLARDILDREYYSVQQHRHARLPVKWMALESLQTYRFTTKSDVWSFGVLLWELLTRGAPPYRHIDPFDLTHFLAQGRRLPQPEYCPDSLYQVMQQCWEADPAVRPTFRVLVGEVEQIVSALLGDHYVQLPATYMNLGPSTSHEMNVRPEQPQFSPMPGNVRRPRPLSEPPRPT

SMILES | IC50 [1] | IC50 [2]
COc1cccc2sc(-c3cc(-c4cnn(C5CCNCC5)c4)cnc3N)nc12 [Example 277, 3-(4-Methoxybenzothiazol-2-yl)-5-(1-piperidin-4-yl-1H-pyrazol-4-yl)-pyridin-2-ylamine] | 100 to 1000 nM | 100 to 1000 nM
Nc1ncc(-c2cnn(C3CCNCC3)c2)cc1-c1nc2c(Cl)cccc2s1 [Example 278, 3-(4-Chlorobenzothiazol-2-yl)-5-(1-piperidin-4-yl-1H-pyrazol-4-yl)-pyridin-2-ylamine] | 100 to 1000 nM | ≤ 100 nM
Nc1ncc(-c2cnn(C3CCNCC3)c2)cc1-c1nc2ccc(C(F)(F)F)cc2s1 [Example 279, 5-(1-Piperidin-4-yl-1H-pyrazol-4-yl)-3-(6-trifluoromethylbenzothiazol-2-yl)-pyridin-2-ylamine] | 100 to 1000 nM | 100 to 1000 nM
Cc1ccc(C(F)(F)F)c2nc(-c3cc(-c4cnn(C5CCNCC5)c4)cnc3N)sc12 [Example 280, 3-(7-Methyl-4-trifluoromethylbenzothiazol-2-yl)-5-(1-piperidin-4-yl-1H-pyrazol-4-yl)-pyridin-2-ylamine] | 100 to 1000 nM | 100 to 1000 nM
Nc1ncc(-c2cnn(C3CCNCC3)c2)cc1-c1nc2cc(OC(F)(F)F)ccc2s1 [Example 281, 5-(1-Piperidin-4-yl-1H-pyrazol-4-yl)-3-(5-trifluoromethoxybenzothiazol-2-yl)-pyridin-2-ylamine] | 100 to 1000 nM | 100 to 1000 nM
Nc1ncc(-c2cnn(C3CCNCC3)c2)cc1-c1nc2c(C(F)(F)F)ccc(Cl)c2s1 [Example 282, 3-(7-Chloro-4-trifluoromethylbenzothiazol-2-yl)-5-(1-piperidin-4-yl-1H-pyrazol-4-yl)-pyridin-2-ylamine] | 100 to 1000 nM | 100 to 1000 nM
Nc1ncc(-c2cnn(C3CCNCC3)c2)cc1-c1nc2cc(F)ccc2s1 [Example 283, 3-(5-Fluorobenzothiazol-2-yl)-5-(1-piperidin-4-yl-1H-pyrazol-4-yl)-pyridin-2-ylamine] | ≤ 100 nM | ≤ 100 nM
N#Cc1cccc2sc(-c3cc(-c4cnn(C5CCNCC5)c4)cnc3N)nc12 [Example 284, 2-[2-Amino-5-(1-piperidin-4-yl-1H-pyrazol-4-yl)-pyridin-3-yl]-benzothiazole-4-carbonitrile] | 100 to 1000 nM | 100 to 1000 nM
Nc1ncc(-c2cnn(C3CCNCC3)c2)cc1-c1nc2c(OC(F)(F)F)cccc2s1 [Example 285, 5-(1-Piperidin-4-yl-1H-pyrazol-4-yl)-3-(4-trifluoromethoxybenzothiazol-2-yl)-pyridin-2-ylamine] | 1000 to 20000 nM | 100 to 1000 nM
Nc1ncc(-c2cnn(C3CCNCC3)c2)cc1-c1nc2c(C(F)(F)F)c(F)ccc2s1 [Example 286, 3-(5-Fluoro-4-trifluoromethylbenzothiazol-2-yl)-5-(1-piperidin-4-yl-1H-pyrazol-4-yl)-pyridin-2-ylamine] | 100 to 1000 nM | 100 to 1000 nM
Nc1ncc(-c2cnn(C3CCNCC3)c2)cc1-c1nc2c(Br)cc(OC(F)(F)F)cc2s1 [Example 287, 3-(4-Bromo-6-trifluoromethoxybenzothiazol-2-yl)-5-(1-piperidin-4-yl-1H-pyrazol-4-yl)-pyridin-2-ylamine] | 100 to 1000 nM | 1000 to 20000 nM
Nc1ncc(-c2cnn(CCC(=O)N3CCCCC3)c2)cc1-c1nc2ccccc2s1 [Example 288, 3-[4-(6-Amino-5-benzothiazol-2-ylpyridin-3-yl)-pyrazol-1-yl]-1-piperidin-1-ylpropan-1-one] | > 20000 nM | 100 to 1000 nM
Nc1ncc(-c2cnn(CCC(=O)N3CCC(O)C3)c2)cc1-c1nc2ccccc2s1 (centres unmarked) [Example 289, 3-[4-(6-Amino-5-benzothiazol-2-ylpyridin-3-yl)-pyrazol-1-yl]-1-(3-hydroxypyrrolidin-1-yl)-propan-1-one] | 1000 to 20000 nM | 100 to 1000 nM
Nc1ncc(-c2cnn(CCC(=O)N3CCC(O)CC3)c2)cc1-c1nc2ccccc2s1 [Example 290, 3-[4-(6-Amino-5-benzothiazol-2-ylpyridin-3-yl)-pyrazol-1-yl]-1-(4-hydroxypiperidin-1-yl)-propan-1-one] | 1000 to 20000 nM | 100 to 1000 nM
Nc1ncc(-c2cnn(CCC(=O)N3CCOCC3)c2)cc1-c1nc2ccccc2s1 [Example 291, 3-[4-(6-Amino-5-benzothiazol-2-ylpyridin-3-yl)-pyrazol-1-yl]-1-morpholin-4-ylpropan-1-one] | > 20000 nM | 1000 to 20000 nM
COCCNC(=O)CCn1cc(-c2cnc(N)c(-c3nc4ccccc4s3)c2)cn1 [Example 292, 3-[4-(6-Amino-5-benzothiazol-2-ylpyridin-3-yl)-pyrazol-1-yl]-N-(2-methoxyethyl)-propionamide] | > 20000 nM | 1000 to 20000 nM
Nc1ncc(-c2cnn(CCC(=O)NCCO)c2)cc1-c1nc2ccccc2s1 [Example 293, 3-[4-(6-Amino-5-benzothiazol-2-ylpyridin-3-yl)-pyrazol-1-yl]-N-(2-hydroxyethyl)-propionamide] | 1000 to 20000 nM | 100 to 1000 nM
COCCN(CCOC)C(=O)CCn1cc(-c2cnc(N)c(-c3nc4ccccc4s3)c2)cn1 [Example 294, 3-[4-(6-Amino-5-benzothiazol-2-ylpyridin-3-yl)-pyrazol-1-yl]-N,N-bis-(2-methoxyethyl)-propionamide] | 1000 to 20000 nM | 1000 to 20000 nM
CN(C)C(=O)CCn1cc(-c2cnc(N)c(-c3nc4ccccc4s3)c2)cn1 [Example 295, 3-[4-(6-Amino-5-benzothiazol-2-ylpyridin-3-yl)-pyrazol-1-yl]-N,N-dimethylpropionamide] | 1000 to 20000 nM | 100 to 1000 nM
CNC(=O)CCn1cc(-c2cnc(N)c(-c3nc4ccccc4s3)c2)cn1 [Example 296, 3-[4-(6-Amino-5-benzothiazol-2-ylpyridin-3-yl)-pyrazol-1-yl]-N-methylpropionamide] | 1000 to 20000 nM | 1000 to 20000 nM
NC(=O)CCn1cc(-c2cnc(N)c(-c3nc4ccccc4s3)c2)cn1 [Example 297, 3-[4-(6-Amino-5-benzothiazol-2-ylpyridin-3-yl)-pyrazol-1-yl]-propionamide] | 1000 to 20000 nM | 100 to 1000 nM
Nc1ncc(-c2cnn(C3CCNCC3)c2)cc1-c1nc2c(s1)CCCC2 [Example 298, 5-(1-Piperidin-4-yl-1H-pyrazol-4-yl)-3-(4,5,6,7-tetrahydro-benzothiazol-2-yl)-pyridin-2-ylamine] | ≤ 100 nM | ≤ 100 nM
Nc1ncc(-c2cnn(C3CCNCC3)c2)cc1-c1nc2c(s1)CCCCC2 [Example 299, 5-(1-Piperidin-4-yl-1H-pyrazol-4-yl)-3-(5,6,7,8-tetrahydro-4H-cycloheptathiazol-2-yl)-pyridin-2-ylamine] | 100 to 1000 nM | 100 to 1000 nM
Nc1ncc(-c2cnn(C3CCNCC3)c2)cc1N1CCc2ccccc2C1 [Example 300, 3-(3,4-Dihydro-1H-isoquinolin-2-yl)-5-(1-piperidin-4-yl-1H-pyrazol-4-yl)-pyridin-2-ylamine] | 1000 to 20000 nM | 100 to 1000 nM
Nc1ncc(-c2cnn(C3CCNCC3)c2)cc1N1CCc2c(F)cccc2C1 [Example 301, 3-(5-Fluoro-3,4-dihydro-1H-isoquinolin-2-yl)-5-(1-piperidin-4-yl-1H-pyrazol-4-yl)-pyridin-2-ylamine] | 1000 to 20000 nM | 1000 to 20000 nM
Nc1ncc(-c2cnn(C3CCNCC3)c2)cc1N1CCc2c(Cl)cccc2C1 [Example 302, 3-(5-Chloro-3,4-dihydro-1H-isoquinolin-2-yl)-5-(1-piperidin-4-yl-1H-pyrazol-4-yl)-pyridin-2-ylamine] | 100 to 1000 nM | 100 to 1000 nM
Nc1ncc(-c2cnn(C3CCNCC3)c2)cc1N1CCc2c(F)ccc(F)c2C1 [Example 303, 3-(5,8-Difluoro-3,4-dihydro-1H-isoquinolin-2-yl)-5-(1-piperidin-4-yl-1H-pyrazol-4-yl)-pyridin-2-ylamine] | 100 to 1000 nM | 100 to 1000 nM
Nc1ncc(-c2cnn(C3CCNCC3)c2)cc1-c1ccc2ccccc2c1 [Example 304, 3-Naphthalen-2-yl-5-(1-piperidin-4-yl-1H-pyrazol-4-yl)-pyridin-2-ylamine trihydrochloride] | 1000 to 20000 nM | 100 to 1000 nM
